# Source: article PMC9315260, “Diarylamine-Guided Carboxamide Derivatives: Synthesis, Biological Evaluation, and Potential Mechanism of Action” (Frontiers in Chemistry, 2022)
# Legend:
# [1] = tested on: SGC-7901 (human gastric cancer cell line); experiment: MTT in vitro cytotoxicity assay, SGC-7901; type: cell-based; conditions: SGC-7901, Table 1, MTT, mean ± S.D.
# Description: (§1) The lead molecules A2 and all newly prepared diarylamine derivatives B1-13 and C1-11 were evaluated for their in vitro cytotoxic effects against SGC-7901, A875, HepG2 and MARC145 cell lines by the classical MTT [3-(4,5-dimethylthiazol-2-yl)-2,5-diphenyl tetrazolium bromide] assay ([Alley et al., 1988]; [Ke et al., 2012]; [Shi et al., 2012]; [Yu et al., 2015]; [Ke et al., 2019]; [Xu et al., 2019]; [Huang et al., 2021]) using 5-FU (5-Fluorouracil) as a control.
# (§2) The cytotoxicity of target compounds was determined with MTT assay ([Alley et al., 1988]; [Ke et al., 2012]; [Shi et al., 2012]; [Yu et al., 2015]; [Ke et al., 2019]; [Xu et al., 2019]; [Huang et al., 2021]). SGC-7901, A875, HepG2 and MARC145 cell lines were obtained from Hubei Biopesticide Engineering Research Centre. All data of the experiment were analyzed with SPSS software, and all assay were performed in triplicate on three independent experiments, and measurement data were expressed as the mean ± S.D.
# (§3) The in vitro cytotoxicity of the synthesized compounds against different cell lines (SGC-7901, A875, HepG2 and MARC145) was measured with MTT assay. All the data of the experiment were analyzed with SPSS software, and the 50% inhibitory concentrations (IC50) of each compound for the different cell lines were determined. A control was run for each test, and all assays were performed in triplicate on three independent experiments, and measurement data were expressed as the mean ± S.D.
# [2] = MTT in vitro cytotoxicity assay, MARC145; type: cell-based, African green monkey; conditions: African green monkey, MARC145 cells (kidney cell line, subclone of MA-104), Table 1; MTT; mean ± S.D.
# Description: as §1, §2, §3
# [3] = tested on: A875 (human melanoma cell line); experiment: MTT in vitro cytotoxicity assay, A875; type: cell-based; conditions: A875, Table 1, MTT, mean ± S.D.
# Description: as §1, §2, §3
# [4] = tested on: HepG2 (human hepatocellular liver carcinoma cell line); experiment: MTT in vitro cytotoxicity assay, HepG2; type: cell-based; conditions: HepG2, Table 1, MTT, mean ± S.D.
# Description: as §1, §2, §3
Structure (SMILES),IC50 [1] [µM],IC50 [2] [µM],IC50 [3] [µM],melting point [°C],IC50 [4] [µM]
"NC(=O)c1ccccc1NC(=O)c1ccccc1Nc1cccc(C(F)(F)F)c1 [B1, N-(2-Carbamoylphenyl)-2-((3-(trifluoromethyl)phenyl)amino)benzamide]",> 100,> 100,> 100,136 to 137,> 100
"CNC(=O)c1ccccc1NC(=O)c1ccccc1Nc1cccc(C(F)(F)F)c1 [B2, N-Methyl-2-(2-((3-(trifluoromethyl)phenyl)amino)benzamido)benzamide]",> 96,> 96,> 96,,> 96
"NC(=O)c1cc(F)cc(Br)c1NC(=O)c1ccccc1Nc1cccc(C(F)(F)F)c1 [B3, 3-Bromo-5-fluoro-2-(2-((3-(trifluoromethyl)phenyl)amino)benzamido)benzamide]",22.5 ± 4.04,38 ± 0.81,> 80,198 to 199,> 80
"CNC(=O)c1cc(F)cc(Br)c1NC(=O)c1ccccc1Nc1cccc(C(F)(F)F)c1 [B4, 3-Bromo-5-fluoro-N-methyl-2-(2-((3-(trifluoromethyl)phenyl)amino)benzamido)benzamide]",> 78,> 78,> 78,189 to 190,> 78
"Cc1cccc(C(N)=O)c1NC(=O)c1ccccc1Nc1cccc(C(F)(F)F)c1 [B5, N-(2-Carbamoyl-6-methylphenyl)-2-((3-(trifluoromethyl)phenyl)amino)benzamide]",> 97,> 97,> 97,,> 97
"CNC(=O)c1cccc(C)c1NC(=O)c1ccccc1Nc1cccc(C(F)(F)F)c1 [B6, N,3-Dimethyl-2-(2-((3-(trifluoromethyl)phenyl)amino)benzamido)benzamide]",> 94,> 94,> 94,,> 94
"NC(=O)c1ccc(Cl)cc1NC(=O)c1ccccc1Nc1cccc(C(F)(F)F)c1 [B7, N-(2-Carbamoyl-5-chlorophenyl)-2-((3-(trifluoromethyl)phenyl)amino)benzamide]",> 92,> 92,> 92,176 to 177,> 92
"CNC(=O)c1ccc(Cl)cc1NC(=O)c1ccccc1Nc1cccc(C(F)(F)F)c1 [B8, 4-Chloro-N-methyl-2-(2-((3-(trifluoromethyl)phenyl)amino)benzamido)benzamide]",> 89,> 89,> 89,152 to 153,> 89
"NC(=O)c1cc(Cl)ccc1NC(=O)c1ccccc1Nc1cccc(C(F)(F)F)c1 [B9, N-(2-Carbamoyl-4-chlorophenyl) -2-((3-(trifluoromethyl)phenyl)amino)benzamide]",> 92,> 92,> 92,,> 92
"CNC(=O)c1cc(Cl)ccc1NC(=O)c1ccccc1Nc1cccc(C(F)(F)F)c1 [B10, 5-Chloro-N-methyl-2-(2-((3-(trifluoromethyl)phenyl)amino)benzamido)benzamide]",39.4 ± 8.96,38 ± 9.84,> 89,190 to 191,49.9 ± 9.26
